Counter-ions that a name gives are not always drawn.

For one experiment, the system named is BPH patients. To be noted: cited from earlier work; for improvement in urinary flow rates and subjective symptom scores: longer term studies.
In experiment [1] the target is T1, α-1A adrenoceptor (dog prostate) (Homo sapiens, UniProt P35348).
T1 construct: from tissue; host or cells: canine prostate strips
T1 sequence (P35348 1-466): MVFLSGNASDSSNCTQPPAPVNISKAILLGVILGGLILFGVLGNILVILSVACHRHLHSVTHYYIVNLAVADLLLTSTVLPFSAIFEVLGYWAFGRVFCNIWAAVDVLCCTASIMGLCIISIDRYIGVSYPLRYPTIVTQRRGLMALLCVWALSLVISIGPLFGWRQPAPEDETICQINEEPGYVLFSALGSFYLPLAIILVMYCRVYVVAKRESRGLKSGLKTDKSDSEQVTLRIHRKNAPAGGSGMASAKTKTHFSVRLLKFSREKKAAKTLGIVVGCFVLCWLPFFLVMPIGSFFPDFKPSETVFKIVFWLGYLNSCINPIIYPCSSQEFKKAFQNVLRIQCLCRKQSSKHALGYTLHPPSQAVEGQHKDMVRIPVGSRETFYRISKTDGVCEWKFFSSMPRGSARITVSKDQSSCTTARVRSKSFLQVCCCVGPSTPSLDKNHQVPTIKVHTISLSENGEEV
The experiment in a line: Functional antagonism of phenylephrine-induced contraction of canine prostate strips. To be noted: vs phenylephrine-induced contraction, Schild plot. The class given is cell-based, dog (canine). From the text: (§1) Canine prostate strips were used in vitro as previously described (Hieble, J. P., Boyce, A. J. and Caine, M., Fed. Proc., 45: 2609-2614 (1986)), to determine antagonist potencies against phenylephrine-induced contractions.
(§2) Functional assays indicative of pharmacologically defined α-1 adrenoceptors were used to further characterize compounds. Inhibition of phenylephrine (PE)-induced contraction of canine prostate smooth muscle can be correlated with α-1A adrenoceptor activation. […] For each of these models, agonist dose response curves were repeated against increasing concentrations of test agent to derive a Schild plot [log ([…]) against log (molarity of test agent)] to determine the pA2.

Experiment [2] deals with T2, α-1A adrenoceptor (rat vas deferens) (Rattus norvegicus, UniProt P43140).
T2 construct: PE-induced contraction of rat vas deferens; from tissue; host or cells: isolated rat vas deferens
T2 sequence (P43140 1-466): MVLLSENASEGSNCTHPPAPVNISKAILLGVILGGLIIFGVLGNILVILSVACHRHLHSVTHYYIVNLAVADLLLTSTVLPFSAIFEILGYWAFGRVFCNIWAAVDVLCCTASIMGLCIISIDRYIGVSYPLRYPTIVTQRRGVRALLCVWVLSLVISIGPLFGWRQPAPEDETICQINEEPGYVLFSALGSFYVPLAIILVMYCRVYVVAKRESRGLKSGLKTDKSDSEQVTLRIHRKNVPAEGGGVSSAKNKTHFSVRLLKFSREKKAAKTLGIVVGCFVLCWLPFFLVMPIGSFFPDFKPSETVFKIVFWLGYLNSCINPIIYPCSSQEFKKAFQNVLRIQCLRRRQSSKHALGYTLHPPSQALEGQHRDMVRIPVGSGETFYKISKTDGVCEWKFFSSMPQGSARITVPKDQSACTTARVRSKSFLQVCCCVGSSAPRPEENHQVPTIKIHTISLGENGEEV
Kind of experiment: Functional antagonism of phenylephrine-induced contraction of rat vas deferens. The class given is cell-based. The conditions noted are these: vs phenylephrine-induced contraction, Schild plot; for Kb: read-out: pA2 Rat Vas Deferens [α-1A] (converted).
Excerpt: as §2

Experiment [3] has as its target T3, α-1B adrenoceptor (rat spleen) (Rattus norvegicus, UniProt P15823).
T3 construct: PE-induced contraction of rat spleen; from tissue; host or cells: isolated rat spleen
T3 sequence (P15823 1-515): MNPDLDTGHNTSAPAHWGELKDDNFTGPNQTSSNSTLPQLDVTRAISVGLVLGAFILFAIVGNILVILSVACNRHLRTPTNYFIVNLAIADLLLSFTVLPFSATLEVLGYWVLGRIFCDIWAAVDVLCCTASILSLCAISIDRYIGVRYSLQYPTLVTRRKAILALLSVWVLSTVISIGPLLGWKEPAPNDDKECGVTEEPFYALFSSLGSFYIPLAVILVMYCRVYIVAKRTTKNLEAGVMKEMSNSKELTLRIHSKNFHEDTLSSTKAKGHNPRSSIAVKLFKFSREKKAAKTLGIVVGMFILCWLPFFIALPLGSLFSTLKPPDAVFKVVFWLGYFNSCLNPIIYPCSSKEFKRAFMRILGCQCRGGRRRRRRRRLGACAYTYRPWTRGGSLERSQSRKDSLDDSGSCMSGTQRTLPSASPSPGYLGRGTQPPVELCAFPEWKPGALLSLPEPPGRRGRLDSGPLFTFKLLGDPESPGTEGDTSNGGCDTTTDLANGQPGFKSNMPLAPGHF
The experiment in a line: Functional antagonism of phenylephrine-induced contraction of rat spleen. The class given is cell-based. The conditions noted are these: vs phenylephrine-induced contraction, Schild plot; for Kb: read-out: pA2 Rat Spleen [α-1B] (converted).
Excerpt: as §2

For experiment [4], the target named is T4, α-1A adrenoceptor (dog prostate).
T4 construct: from tissue; host or cells: canine prostate strips
Kind of experiment: Functional antagonism of phenylephrine-induced contraction of canine prostate strips. The class given is cell-based, dog (canine). To be noted: vs phenylephrine-induced contraction, Schild plot; read-out: pA2 Dog Prostate [α-1A] (converted).
Excerpt: as §1, §2

For `COc1cc2nc(N3CCN(C(=O)c4ccco4)CC3)nc(N)c2cc1OC` [prazosin], the “improvement in urinary flow rates and subjective symptom scores” value (“improvement” below) in the experiment on BPH patients was “significant improvements in urinary flow rates and subjective symptom scores”. Turning to `COc1cccc2c1CC[C@H]1CN(CCn3c(=O)[nH]c4c(-c5ccccc5)csc4c3=O)C[C@@H]21` (relative stereo) [Example 31, 3-[2-(cis-6-Methoxy-2,3,3a,4,5,9b-hexahydro-[1H]-benz[e]isoindol-1-yl)ethyl]-7-phenylthieno[3.2-d]pyrimidine-2,4(1H,3H)-dione methanesulfonate], the “pA2 Dog Prostate [α-1A]” value in experiment [1] is on record as 8.63.

For `CCOc1ccc2c(=O)n(CCN3C[C@@H]4CCc5c(OC)cccc5[C@@H]4C3)c(=O)[nH]c2c1C` [Example 78, 3-[2-((3aR,9bR)cis-6-Methoxy-2,3,3a,4,5,9b-hexahydro-[1H]-benz[e]isoindol-1I-yl)ethyl]-7-ethox-8-methyl-quinazoline-2,4(1H,3H|-dione hydrochloride], the “pA2 Dog Prostate [α-1A]” value in experiment [1] came out at 8.03. As for `COc1cccc2c1CC[C@H]1CN(CCn3c(=O)[nH]c4c(OC)c(OC)ccc4c3=O)C[C@@H]21` [Example 81, hydrochloride], the “pA2 Rat Vas Deferens [α-1A]” value in experiment [2] was 8.9. Further, in experiment [3], the “pA2 Rat Spleen [α-1B]” value is on record as 8.15. Further, the “pA2 Dog Prostate [α-1A]” value in experiment [1] is reported as 9.45. On to `COc1cc2nc(N3CCN(C(=O)C4COc5ccccc5O4)CC3)nc(N)c2cc1OC` (stereo not shown) [doxazosin], for which the “improvement” value in the experiment with BPH patients is “significant improvements in urinary flow rates and subjective symptom scores”.

For `COc1cc2nc(N3CCN(C(=O)C4CCCO4)CC3)nc(N)c2cc1OC` (stereo not shown) [terazosin], the “pA2 Rat Spleen [α-1B]” value in experiment [3] is recorded as 8.6. Moreover, in the experiment with BPH patients, the “improvement” value was “significant improvements in urinary flow rates and subjective symptom scores”. Besides, in the experiment with BPH patients (non-selective α-1 blockers), the “clinical efficacy in BPH” value is given as “Clinical efficacy of α-1 antagonists in BPH has been demonstrated”. As for `O=C(NC1CCN(CCc2c[nH]c3ccccc23)CC1)c1ccccc1` [indoramin], the “improvement” value in the experiment on BPH patients is “significant improvements in urinary flow rates and subjective symptom scores”.

Consider `COc1cccc2c1CC[C@@H]1CN(CCn3c(=O)[nH]c4ccccc4c3=O)C[C@H]21` (relative stereo) [Example 1, 3-[2-(cis-9-Methoxy-2,3,3a,4,5,9b-hexahydro-[1H]-benz[e]isoindol-1-yl)ethyl]-[1H,3H]-quinazoline-2,4(1H,3H)-dione hydrochloride], for which, in experiment [2], the “pA2 Rat Vas Deferens [α-1A]” value stood at 8.49. Further, the “pA2 Rat Spleen [α-1B]” value in experiment [3] is 8. The “pA2 Dog Prostate [α-1A]” value in experiment [1] was found to be 9.29. Consider `COc1cccc2c1CC[C@H]1CN(CCn3c(=O)[nH]c4c(C)c(OC)ccc4c3=O)C[C@@H]21` [Example 77, 3-[2-((3aR,9bR)cis-6-Methoxy-2,3,3a,4,59b-hexahydro-[1H]-benz[e]isoindol-1-yl)ethyl]-7-methoxy-8-methyl-quinazoline-2(1H,3H)-dione hydrochloride], for which the Kb is 479 pM in experiment [2], 2950 pM in experiment [3] and 398 pM in experiment [4]. For `COc1cccc2c1CC[C@H]1CN(CCn3c(=O)[nH]c4c(C)c(C)ccc4c3=O)C[C@@H]21` [Example 80, 3-[2-((3aR.9bR)cis-6-Methoxy-2,3,3a,4,5,9b-hexahydro-[1H-benz[e]isoindol-1-yl)ethyl]-7.8-dimethylquinazoline-2,4(1H,3H)-dione hydrochloride] the same measures were 891 pM, 11700 pM and 631 pM. As for `CCCOC(=O)c1ccc2c(=O)n(CCN3C[C@@H]4CCc5c(OC)cccc5[C@@H]4C3)c(=O)[nH]c2c1` [Example 72, hydrochloride], the “pA2 Dog Prostate [α-1A]” value in experiment [1] amounted to 8.57. Same read-out and setting: under `COc1cccc2c1CC[C@H]1CN(CCn3c(=O)[nH]c4cc(C)c(C)cc4c3=O)C[C@@H]21` [Example 68, hydrochloride] stands 8.28.

Values taken from patent US5792767A, “Bicyclic substituted hexahydrobenz [e] isoindole alpha-1 adrenergic antagonists” (priority 1995, dated 1998).
